Values quoted from earlier work in patent US7112576B1, “Compositions and methods for cryopreservation of peripheral blood lymphocytes” (Regents of the University of Minnesota, priority 1999, dated 2006).

Tested on: patients who received cryopreserved autologous cell grafts
Details: attributed to the infusion of DMSO

## C[S+](C)[O-] [DMSO, dimethylsulfoxide]
  patients exhibiting decreased heart rates: 98%
  patients exhibiting dyspnea: 83%
  patients exhibiting transient hypertension: 96%
